Laboratory results reported in patent US8629148B2, “Substituted oxindole-derivatives and the use thereof for the treatment of vasopressin-dependent illnesses” (AbbVie Deutschland GmbH & Co. KG, priority 2007, dated 2014).

Assays:
[1] = molecular target: T1, human vasopressin V1b receptor (Homo sapiens, UniProt P47901); assay: Vasopressin V1b receptor binding assay (3H-AVP displacement, CHO-K1 membranes)
T1 construct: expressed in transfected cells; host or cells: CHO-K1 (cell line hV1b_3H2_CHO), membranes
T1 sequence (P47901 1-424): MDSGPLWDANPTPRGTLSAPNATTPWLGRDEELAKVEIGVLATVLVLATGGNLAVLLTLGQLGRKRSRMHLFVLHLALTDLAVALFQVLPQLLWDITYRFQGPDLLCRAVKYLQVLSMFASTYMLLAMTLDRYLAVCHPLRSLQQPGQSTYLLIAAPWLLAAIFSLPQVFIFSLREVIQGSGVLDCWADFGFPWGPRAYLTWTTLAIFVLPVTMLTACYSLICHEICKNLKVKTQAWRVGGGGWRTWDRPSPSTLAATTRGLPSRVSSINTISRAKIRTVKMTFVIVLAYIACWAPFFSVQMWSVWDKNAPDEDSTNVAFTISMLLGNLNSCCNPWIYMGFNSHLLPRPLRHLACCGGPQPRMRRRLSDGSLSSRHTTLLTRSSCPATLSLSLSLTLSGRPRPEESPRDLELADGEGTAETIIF
Procedure: 1. Vasopressin V1b Receptor Binding Assay:
The substance concentration was further diluted 1:5 in the assay mixture (2% DMSO in the mixture).
All determinations were carried out as triplicate determinations.

[2] = molecular target: T2, recombinant human oxytocin receptors (Homo sapiens, UniProt P30559); assay: Oxytocin receptor binding assay (3H-oxytocin, HEK-293 cells); settings: selectivity quotient, human OT vs human V1b
T2 construct: expressed in transfected cells; host or cells: HEK-293, transient expression; lysed and homogenized cells
T2 sequence (P30559 1-389): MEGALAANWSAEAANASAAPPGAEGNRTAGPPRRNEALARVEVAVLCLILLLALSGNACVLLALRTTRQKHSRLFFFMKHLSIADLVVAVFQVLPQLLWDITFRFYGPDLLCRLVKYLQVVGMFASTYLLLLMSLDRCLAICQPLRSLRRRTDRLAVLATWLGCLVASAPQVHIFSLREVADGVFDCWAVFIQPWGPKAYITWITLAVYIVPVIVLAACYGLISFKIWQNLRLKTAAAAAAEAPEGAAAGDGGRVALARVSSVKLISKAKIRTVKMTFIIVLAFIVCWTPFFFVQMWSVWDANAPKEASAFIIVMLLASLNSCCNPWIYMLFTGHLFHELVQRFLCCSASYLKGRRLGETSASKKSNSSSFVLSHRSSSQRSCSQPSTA
Procedure: The residue was taken up in ice-cold lysis buffer (50 mM Tris-HCl, 10% glycerol, pH 7.4 and Roche complete protease inhibitor) and subjected to an osmotic shock at 4° C. for 20 minutes. The lyzed cells were then centrifuged at 750×g at 4° C. for 20 minutes, the residue was taken up in incubation buffer, and aliquots of 10^7 cells/ml were prepared. The aliquots were frozen at −80° C. until used.
On the day of the experiment, the cells were thawed, diluted with incubation buffer and homogenized using a Multipette Combitip (Eppendorf, Hamburg). […] Triplicate determinations were set up. Bound and free radioligand were separated by filtration under vacuum with Whatman GF/B glass fiber filters with the aid of a Skatron cell harvester 7000. The bound radioactivity was determined by liquid scintillation measurement in a Tricarb Beta counter, model 2000 or 2200CA (Packard).

[3] = molecular target: human vasopressin V1a receptor (Homo sapiens, UniProt P37288); assay: Vasopressin V1a receptor binding assay (125I-AVP displacement, CHO-K1 membranes); settings: selectivity quotient, human V1a vs human V1b
Sequence of human vasopressin V1a receptor (P37288 whole entry): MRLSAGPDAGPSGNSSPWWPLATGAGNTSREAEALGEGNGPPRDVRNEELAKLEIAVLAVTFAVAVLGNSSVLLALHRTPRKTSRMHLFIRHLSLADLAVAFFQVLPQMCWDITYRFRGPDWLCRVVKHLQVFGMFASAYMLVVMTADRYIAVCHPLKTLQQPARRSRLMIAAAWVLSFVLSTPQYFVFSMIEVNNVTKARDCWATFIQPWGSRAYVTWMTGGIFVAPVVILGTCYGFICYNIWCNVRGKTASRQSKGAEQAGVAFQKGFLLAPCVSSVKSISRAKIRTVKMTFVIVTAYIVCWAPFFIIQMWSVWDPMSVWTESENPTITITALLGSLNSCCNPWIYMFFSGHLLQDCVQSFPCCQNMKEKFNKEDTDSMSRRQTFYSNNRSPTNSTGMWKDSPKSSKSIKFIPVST

Compound	Ki [1] [nM]	Ki(h-OT)/Ki(h-V1b)* [2]	Ki(h-V1a)/Ki(h-V1b)* [3]
CCOc1ncccc1C1(Nc2ccc(CN3CCN(C)CC3)cc2)C(=O)N(S(=O)(=O)c2ccc(OC)cc2OC)c2ccc(C#N)cc21 (stereo not drawn) [Example 74, 1-(2,4-Dimethoxyphenylsulfonyl)-3-(2-ethoxypyridin-3-yl)-3-[4-(4-methylpiperazin-1-ylmethyl)phenylamino]-2-oxo-2,3-dihydro-1H-indole-5-carbonitrile]	1 to 10	+++ (>75)	+++ (>75)
CCOc1ncccc1C1(Nc2ccc(CN3CCN(C)CC3)cc2)C(=O)N(S(=O)(=O)c2ccc(OC)cc2)c2ccc(C#N)cc21 (stereo not drawn) [Example 75, 3-(2-Ethoxypyridin-3-yl)-1-(4-methoxyphenylsulfonyl)-3-[4-(4-methylpiperazin-1-ylmethyl)-phenylamino]-2-oxo-2,3-dihydro-1H-indole-5-carbonitrile]	10 to 100	+++ (>75)	++ (25-75)
COc1ccc(S(=O)(=O)N2C(=O)C(NCc3ccc(N4CCN(C)CC4)cc3)(c3cccnc3OCC(F)(F)F)c3cc(C#N)ccc32)cc1 (stereo not drawn) [Example 77, 1-(4-Methoxyphenylsulfonyl)-3-(2-(2,2,2-trifluoroethoxy)pyridin-3-yl)-3-[4-(4-methylpiperazin-1-yl)benzylamino]-2-oxo-2,3-dihydro-1H-indole-5-carbonitrile]	1 to 10	++ (25-75)	++ (25-75)
CCN1CCN(c2ccc(NC3(c4cccnc4OCC(F)F)C(=O)N(S(=O)(=O)c4ccc(OC)cc4)c4ccc(C#N)cc43)cc2)CC1 (stereo not drawn) [Example 79, 3-[4-(4-Ethylpiperazin-1-yl)phenylamino]-1-(4-methoxyphenylsulfonyl)-3-(2-(2,2-difluoroethoxy)pyridin-3-yl)-2-oxo-2,3-dihydro-1H-indole-5-carbonitrile]	10 to 100	+++ (>75)	++ (25-75)
